Measurements from patent publication US12233177B2, “Method for external sterilization of drug delivery device” (AMGEN INC., priority 2019, dated 2025).

Tested on: Geobacillus stearothermophilus
Assay: Lethality study of NO2 external sterilization on spiked pre-filled syringes
Type: cell-based
Method: At least some of the backstops illustrated in the figures were tested in a lethality study. For example, pre-filled syringes were “spiked” with between 1×10^6 and 6×10^6 CFU (e.g., between 1,000,000 and 6,000,000 CFU) of Geobacillus stearothermophilus before sterilization cycles. As a more specific example, the backstop and barrel portions of the prefilled syringes were spiked with the 1-6×10^6 CFU of Geobacillus stearothermophilus. As used herein, the term “CFU” refers to “Colony-Forming Unit”, which is a unit used to estimate the number of viable bacteria or fungal cells in a sample (where “viable” is the ability to multiply via binary fission under controlled conditions). Geobacillus stearothermophilus (previously Bacillus stearothermophilus) is a rod-shaped, gram-positive bacterium and a member of the division Firmicutes. The bacterium is a thermophile and is widely distributed in soil, hot springs, ocean sediment, and is a potential cause of spoilage in food products. The spiked pre-filled syringes were then sterilized using various sterilization parameters to measure the lethality of the sterilization process to evaluate the Sterility Assurance Level (SAL). The pre-filled syringes were spiked with biological indicators or direct inoculation, as is discussed in more detail below.
For each recipe number, five samples (or at least 5 test locations on one or more samples) were tested. […] For example, the target lethality for this test was a Sterility Assurance Level (SAL) of […]. In other words, the target lethality for this test was 6 logs reduction in the number of bacteria present (before sterilization vs. after sterilization). As a more specific example, for Recipe Number 1, one of the five samples tested reached this target lethality for the backstop area (Col. “Spiked Backstop”, row corresponding with Recipe Number 1), but all five of the samples tested reached this target lethality for the barrel area (Col. “Spiked Barrel”, row corresponding with Recipe Number 1). It should be noted that the spiked backstop test results for Recipe Nos. 1-4 (utilizing the backstop 20 shown in FIGS. 2A-2H) were tested via direct inoculation whereas the spiked backstop test results for Recipe Nos. 5-14 (utilizing alternative backstop 120) were tested via biological indicators. It also should be noted that “-” symbols indicate that no data is reported for those parameters/samples. The testing method variance aside, the samples tested utilizing backstops with protrusions achieved target lethality at a much higher rate than the samples utilizing the backstop without protrusions. As discussed above, the ridges minimize and/or prevent occluded spaces and instead permit the sterilization agent to completely or substantially reach various components of the pre-filled syringe, particularly the backstop and flange areas.

SMILES: [O]N=O [NO2, Nitrogen Dioxide]
- Spiked Barrel: samples out of 5 reaching target lethality (6 logs reduction) (Recipe 1: 100 Torr, NO2 10 mg/L, 75% RH, dwell 10 min, 2 pulses, 24 aerations, PFS with backstop 20): 5/5
- Spiked Backstop: samples out of 5 reaching target lethality (6 logs reduction) (Recipe 1: 100 Torr, NO2 10 mg/L, 75% RH, dwell 10 min, 2 pulses, 24 aerations, backstop 20, direct inoculation): 1/5
- Spiked Barrel: samples out of 5 reaching target lethality (6 logs reduction) (Recipe 2: 300 Torr, NO2 10 mg/L, 75% RH, dwell 10 min, 2 pulses, 35 aerations, PFS with backstop 20): 5/5
- Spiked Backstop: samples out of 5 reaching target lethality (6 logs reduction) (Recipe 2: 300 Torr, NO2 10 mg/L, 75% RH, dwell 10 min, 2 pulses, 35 aerations, backstop 20, direct inoculation): 0/5
- Spiked Barrel: samples out of 5 reaching target lethality (6 logs reduction) (Recipe 3: 100 Torr, NO2 20 mg/L, 80% RH, dwell 20 min, 4 pulses, 24 aerations, PFS with backstop 20): 5/5
- Spiked Backstop: samples out of 5 reaching target lethality (6 logs reduction) (Recipe 3: 100 Torr, NO2 20 mg/L, 80% RH, dwell 20 min, 4 pulses, 24 aerations, backstop 20, direct inoculation): 0/5
- Spiked Barrel: samples out of 5 reaching target lethality (6 logs reduction) (Recipe 4: 20 Torr, NO2 10 mg/L, 80% RH, dwell 10 min, 4 pulses, 35 aerations, PFS with backstop 20): 5/5
- Spiked Backstop: samples out of 5 reaching target lethality (6 logs reduction) (Recipe 4: 20 Torr, NO2 10 mg/L, 80% RH, dwell 10 min, 4 pulses, 35 aerations, backstop 20, direct inoculation): 2/5
- Spiked Barrel: samples out of 5 reaching target lethality (6 logs reduction) (Recipe 5: 20 Torr, NO2 10 mg/L, 75% RH, dwell 10 min, 8 pulses, 28 aerations, PFS with alternative backstops): 5/5
- Spiked Backstop: samples out of 5 reaching target lethality (6 logs reduction) (Recipe 5: 20 Torr, NO2 10 mg/L, 75% RH, dwell 10 min, 8 pulses, 28 aerations, alternative backstops, biological indicators): 5/5
- Spiked Backstop: samples out of 5 reaching target lethality (6 logs reduction) (Recipe 6: 20 Torr, NO2 20 mg/L, 80% RH, dwell 20 min, 4 pulses, 24 aerations, alternative backstops, biological indicators): 5/5
- Spiked Backstop: samples out of 5 reaching target lethality (6 logs reduction) (Recipe 7: 20 Torr, NO2 10 mg/L, 80% RH, dwell 20 min, 4 pulses, 24 aerations, alternative backstops, biological indicators): 5/5
- Spiked Backstop: samples out of 5 reaching target lethality (6 logs reduction) (Recipe 8: 20 Torr, NO2 10 mg/L, 80% RH, dwell 10 min, 4 pulses, 24 aerations, alternative backstops, biological indicators): 5/5
- Spiked Backstop: samples out of 5 reaching target lethality (6 logs reduction) (Recipe 9: 20 Torr, NO2 10 mg/L, 80% RH, dwell 10 min, 2 pulses, 24 aerations, alternative backstops, biological indicators): 5/5
- Spiked Barrel: samples out of 5 reaching target lethality (6 logs reduction) (Recipe 10: 20 Torr, NO2 10 mg/L, 80% RH, dwell 10 min, 1 pulse, 24 aerations, PFS with alternative backstops): 5/5
- Spiked Backstop: samples out of 5 reaching target lethality (6 logs reduction) (Recipe 10: 20 Torr, NO2 10 mg/L, 80% RH, dwell 10 min, 1 pulse, 24 aerations, alternative backstops, biological indicators): 5/5
- Spiked Barrel: samples out of 5 reaching target lethality (6 logs reduction) (Recipe 11: 20 Torr, NO2 5 mg/L, 80% RH, dwell 10 min, 1 pulse, 24 aerations, PFS with alternative backstops): 4/5
- Spiked Backstop: samples out of 5 reaching target lethality (6 logs reduction) (Recipe 11: 20 Torr, NO2 5 mg/L, 80% RH, dwell 10 min, 1 pulse, 24 aerations, alternative backstops, biological indicators): 5/5
- Spiked Barrel: samples out of 5 reaching target lethality (6 logs reduction) (Recipe 12: 20 Torr, NO2 5 mg/L, 80% RH, dwell 10 min, 2 pulses, 24 aerations, PFS with alternative backstops): 5/5
- Spiked Backstop: samples out of 5 reaching target lethality (6 logs reduction) (Recipe 12: 20 Torr, NO2 5 mg/L, 80% RH, dwell 10 min, 2 pulses, 24 aerations, alternative backstops, biological indicators): 5/5
- Spiked Barrel: samples out of 5 reaching target lethality (6 logs reduction) (Recipe 13: 20 Torr, NO2 5 mg/L, 80% RH, dwell 5 min, 2 pulses, 24 aerations, PFS with alternative backstops): 5/5
- Spiked Backstop: samples out of 5 reaching target lethality (6 logs reduction) (Recipe 13: 20 Torr, NO2 5 mg/L, 80% RH, dwell 5 min, 2 pulses, 24 aerations, alternative backstops, biological indicators): 5/5
- Spiked Barrel: samples out of 5 reaching target lethality (6 logs reduction) (Recipe 15: 500 Torr, NO2 5 mg/L, 80% RH, dwell 5 min, 2 pulses, 70 aerations, PFS with alternative backstops): 5/5
- Spiked Backstop: samples out of 5 reaching target lethality (6 logs reduction) (Recipe 15: 500 Torr, NO2 5 mg/L, 80% RH, dwell 5 min, 2 pulses, 70 aerations, alternative backstops, biological indicators): 5/5
